Assay results: patent US20250179083A1, “TRICYCLIC TRIAZOLO COMPOUNDS AS DGK INHIBITORS” (Incyte Corporation, priority 2023, published 2025)

What was measured:
DGKα = target: T1, DGKα (Homo sapiens, UniProt P23743); experiment: In vitro DGKα inhibition assay (ADP-Glo); assay type: biochemical; details: His-tagged human recombinant DGKα 0.1 nM, 50 μM ATP, 20 μM DLG, 90 minute incubation
T1 construct: His; purchased Signal Chem D21-10BH
Procedure, shortened: (§1)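 His-tagged human DGKα (0.1 nM, 50 μM ATP) or DGKζ (0.4 nM, 30 μM ATP), each with 20 μM DLG lipid substrate, in Tris pH 7.5 buffer with Mg2+, Ca2+, CHAPS.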

DGKζ = target: T2, DGKζ (Homo sapiens, UniProt Q13574); experiment: In vitro DGKζ inhibition assay (ADP-Glo); assay type: biochemical; details: His-tagged human recombinant DGKζ 0.4 nM, 30 μM ATP, 20 μM DLG, 90 minute incubation
T2 construct: His; purchased Signal Chem D30-10H
Procedure, shortened: as §1

T1 sequence (P23743 whole entry): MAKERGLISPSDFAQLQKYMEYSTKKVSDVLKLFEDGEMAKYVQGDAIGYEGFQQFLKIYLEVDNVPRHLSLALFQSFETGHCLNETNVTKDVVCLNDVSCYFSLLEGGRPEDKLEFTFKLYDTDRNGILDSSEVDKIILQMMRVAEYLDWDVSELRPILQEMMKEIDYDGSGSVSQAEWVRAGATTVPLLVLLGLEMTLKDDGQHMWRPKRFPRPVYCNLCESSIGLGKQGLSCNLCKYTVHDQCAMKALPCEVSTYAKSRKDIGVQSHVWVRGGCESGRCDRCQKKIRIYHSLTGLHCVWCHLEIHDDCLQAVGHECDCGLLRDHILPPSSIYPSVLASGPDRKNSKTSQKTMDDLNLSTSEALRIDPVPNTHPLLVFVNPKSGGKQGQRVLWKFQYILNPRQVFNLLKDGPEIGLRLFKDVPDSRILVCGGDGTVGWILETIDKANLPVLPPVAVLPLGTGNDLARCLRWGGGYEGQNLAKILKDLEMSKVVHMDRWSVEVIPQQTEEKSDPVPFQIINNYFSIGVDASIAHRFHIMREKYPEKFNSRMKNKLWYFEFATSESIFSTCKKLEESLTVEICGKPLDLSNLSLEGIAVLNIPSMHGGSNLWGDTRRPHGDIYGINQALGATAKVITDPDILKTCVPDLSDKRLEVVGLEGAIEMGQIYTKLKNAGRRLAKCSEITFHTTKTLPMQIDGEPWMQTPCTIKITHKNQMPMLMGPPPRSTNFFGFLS
T2 sequence (Q13574 whole entry): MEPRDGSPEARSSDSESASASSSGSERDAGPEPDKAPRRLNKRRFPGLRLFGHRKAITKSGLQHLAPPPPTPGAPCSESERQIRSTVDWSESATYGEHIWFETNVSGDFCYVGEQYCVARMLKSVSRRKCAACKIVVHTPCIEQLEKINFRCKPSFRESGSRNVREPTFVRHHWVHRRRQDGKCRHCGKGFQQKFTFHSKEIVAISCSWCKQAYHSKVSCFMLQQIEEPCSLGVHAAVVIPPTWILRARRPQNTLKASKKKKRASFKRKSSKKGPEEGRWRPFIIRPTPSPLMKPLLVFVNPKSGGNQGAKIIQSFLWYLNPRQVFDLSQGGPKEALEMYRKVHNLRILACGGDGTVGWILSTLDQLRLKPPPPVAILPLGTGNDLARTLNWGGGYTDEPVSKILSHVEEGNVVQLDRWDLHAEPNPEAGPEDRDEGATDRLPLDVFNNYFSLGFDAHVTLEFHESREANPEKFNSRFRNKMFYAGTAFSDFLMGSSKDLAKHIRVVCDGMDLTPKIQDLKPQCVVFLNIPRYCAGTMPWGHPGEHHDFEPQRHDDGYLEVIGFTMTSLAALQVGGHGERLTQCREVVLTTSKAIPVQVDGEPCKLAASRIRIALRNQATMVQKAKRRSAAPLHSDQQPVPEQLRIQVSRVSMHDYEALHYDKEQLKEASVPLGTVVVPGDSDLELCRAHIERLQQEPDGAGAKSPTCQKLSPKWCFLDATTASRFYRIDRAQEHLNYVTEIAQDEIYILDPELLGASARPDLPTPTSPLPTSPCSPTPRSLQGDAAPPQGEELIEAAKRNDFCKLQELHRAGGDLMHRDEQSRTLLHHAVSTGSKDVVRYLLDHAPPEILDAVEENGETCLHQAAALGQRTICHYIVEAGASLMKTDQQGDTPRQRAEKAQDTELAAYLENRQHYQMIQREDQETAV

SMILES | IC50 (DGKα) [nM] | IC50 (DGKζ) [nM]
Cc1nc2c(N3C[C@@H](C)N([C@@H](c4ccc(Cl)cc4)C(C)C)C[C@@H]3C)cc3nncn3c2n1C[C@@H]1CCCO1 [Example 66, 4-((2S,5R)-4-((R)-1-(4-chlorophenyl)-2-methylpropyl)-2,5-dimethylpiperazin-1-yl)-2-methyl-1-(((S)-tetrahydrofuran-2-yl)methyl)-1H-imidazo[4,5-e][1,2,4]triazolo[4,3-a]pyridine] | < 20 | < 20
Cc1nc2c(N3C[C@@H](C)N(C(C)c4ccc(C(F)(F)F)cc4)C[C@@H]3C)nc3nncn3c2n1C[C@@H]1CCCO1 (stereo partly drawn) [Example 67, 4-((2S,5R)-2,5-Dimethyl-4-(1-(4-(trifluoromethyl)phenyl)ethyl)piperazin-1-yl)-2-methyl-1-(((S)-tetrahydrofuran-2-yl)methyl)-1H-[1,2,4]triazolo[3,4-b]purine] | < 20 | < 20
CC(c1ccc(C(F)(F)F)cc1)N1C[C@H](C)N(c2nc3nncn3c3c2ncn3C[C@@H]2CCCO2)C[C@H]1C (stereo partly drawn) [Example 68, 4-((2S,5R)-2,5-Dimethyl-4-(1-(4-(trifluoromethyl)phenyl)ethyl)piperazin-1-yl)-1-(((S)-tetrahydrofuran-2-yl)methyl)-1H-[1,2,4]triazolo[3,4-b]purine] | < 20 | < 20
Cc1nc2c(N3C[C@@H](C)N(Cc4ccc(C(F)(F)F)cc4F)C[C@@H]3C)cc3nncn3c2n1C[C@@H]1CCCO1 [Example 69, 4-((2S,5R)-4-(2-Fluoro-4-(trifluoromethyl)benzyl)-2,5-dimethylpiperazin-1-yl)-2-methyl-1-(((S)-tetrahydrofuran-2-yl)methyl)-1H-imidazo[4,5-e][1,2,4]triazolo[4,3-a]pyridine] | < 20 | < 20
Cc1nc2c(N3C[C@@H](C)N(Cc4ccc(Cl)cc4)C[C@@H]3C)nc3nncn3c2n1C[C@@H]1CCCO1 [Example 70, 4-((2S,5R)-4-(4-Chlorobenzyl)-2,5-dimethylpiperazin-1-yl)-2-methyl-1-(((S)-tetrahydrofuran-2-yl)methyl)-1H-[1,2,4]triazolo[3,4-b]purine] | < 20 | < 20
Cc1nc2c(N3C[C@@H](C)N(Cc4ccc(Cl)cc4F)C[C@@H]3C)nc3nncn3c2n1C[C@@H]1CCCO1 [Example 71, 4-((2S,5R)-4-(4-Chloro-2-fluorobenzyl)-2,5-dimethylpiperazin-1-yl)-2-methyl-1-(((S)-tetrahydrofuran-2-yl)methyl)-1H-[1,2,4]triazolo[3,4-b]purine] | < 20 | < 20
Cc1nc2c(N3C[C@@H](C)N(Cc4ccc(Cl)c(Cl)c4)C[C@@H]3C)nc3nncn3c2n1C[C@@H]1CCCO1 [Example 72, 4-((2S,5R)-4-(3,4-Dichlorobenzyl)-2,5-dimethylpiperazin-1-yl)-2-methyl-1-(((S)-tetrahydrofuran-2-yl)methyl)-1H-[1,2,4]triazolo[3,4-b]purine] | < 20 | < 20
Cc1nc2c(N3C[C@@H](C)N(Cc4c(F)cc(Cl)cc4F)C[C@@H]3C)nc3nncn3c2n1C[C@@H]1CCCO1 [Example 73, 4-((2S,5R)-4-(4-Chloro-2,6-difluorobenzyl)-2,5-dimethylpiperazin-1-yl)-2-methyl-1-(((S)-tetrahydrofuran-2-yl)methyl)-1H-[1,2,4]triazolo[3,4-b]purine] | < 20 | < 20
Cc1nc2c(N3C[C@@H](C)N(Cc4cc(F)c(Cl)c(C(F)(F)F)c4)C[C@@H]3C)nc3nncn3c2n1C[C@@H]1CCCO1 [Example 74, 4-((2S,5R)-4-(4-Chloro-3-fluoro-5-(trifluoromethyl)benzyl)-2,5-dimethylpiperazin-1-y1)-2-methyl-1-(((S)-tetrahydrofuran-2-yl)methyl)-1H-[1,2,4]triazolo[3,4-b]purine] | < 20 | < 20
